Results published in patent publication US5217990A, “Use of macrolactones as anti-allergics” (Boehringer Mannheim GmbH, priority 1989, dated 1993).
Read-outs that look alike come from different tables or passages of the source. One block for each molecule: values may come before it.

Experiments:
[1] = tested on: lettuce seeds (Lactuca sativa); details: cited from earlier work
[2] = tested on: peripheral human leukocytes; assay: Inhibition of anti-IgE-induced histamine liberation from peripheral human leukocytes; type: cell-based
Text: (§1) For the detection of the anti-allergic action, there was used the inhibition of the proteinase liberation from peripheral human leukocytes induced by anti-IgE antibodies (Wilhelmset et al. XII Congress Europ. Acad. Allergology Clin. Immunology, Rome, Sep. 25--3), 1983, as well as DE-Al-34 46 714) or of the histamine liberation in an analogous process according to a further development of the method of R. P. Siraganian and W. A. Hook (Manual of Clinical Immunology, 2nd edition, 1980, pub. N. R. Rose and H. Friedman, Am. Soc. for Microbiology, pages 808 to 821).
(§2) Description of the Test System for the Testing for Mediator Liberation Inhibition from Human Leukocytes in Vitro
(§3) The liberation of proteinase on isolated human leukocytes is initiated by stimulation with anti-IgE antibodies (IgE-mediated mediator liberation from basophilic granulocytes). The intensity of this liberation reaction is determined by substrate addition (chromozyme TH) and photometric measurement in that the colour intensity of the samples±inhibitor addition are compared.
(§4) Buffy-coat cells=concentrated cell suspension from blood preserve.
(§5) In the following Table I are reproduced the inhibition values of the anti-IgE-induced liberation of histamine and proteinase from peripheral human leukocytes. As comparison substance, there was used the known degranulation inhibitor theophylline.

[3] = tested on: peripheral human leukocytes; assay: Inhibition of anti-IgE-induced proteinase liberation from peripheral human leukocytes; type: cell-based
Text: as §1, §2, §3, §4, §5

[4] = tested on: guinea pig lung parenchyma strips; assay: Inhibition of the antigen-caused constriction of passively sensitised guinea pig lung parenchyma strips in vitro (organ bath); parameters: key to R = relaxation: R: relaxation; details: for inhibition at 40 µg/mL / inhibition at 10 µg/mL: Cavia porcellus
Protocol: As further detection for the anti-allergic action, there was investigated the inhibition of the antigen-caused constriction of passive sensitised guinea pig lung parenchyma strips in vitro.
Inhibition of the Antigen-Caused Construction of Passively Sensitised Guinea Pig Lung Parenchyma Strips in Vitro (Organ Bath)
For the in vitro investigation of the compounds according to the invention, there was measured the inhibition of the antigen-caused constriction on passively sensitised guinea pig lung parenchyma strips, as described in the following.
Pirbright white guinea pigs were stunned by neck blow and exsanguinated. The lungs were rinsed in situ substantially free of blood with Krebs buffer, pH 7.4.
Subsequently, the lung was removed, cut up into strips (about 20×4×4 mm) and the strips passively sensitised for 1 hour at room temperature with a 1:50 dilution of a homologous anti-ovalbumin antiserum and then washed with Krebs buffer 1×.
The antiserum had been previously produced in guinea pigs of the same strain according to Davies G. E., T. P. Johnstone (Quantitative studies on anaphylaxis in guinea pigs passively sensitised with homologous antibody; Inter. Arch. 41, 648-654 (1971)) by repeated injection of ovalbumin (2×crystallised) with the addition of complete Freund's adjuvant.
Up to its use, the antiserum was stored undiluted at -18° C.
Subsequently, the lung strips were suspended individually in 10 ml. waterbaths with a prestressing of 1.2 g on an isometric measurement recorder.
Thereafter, the waterbaths were filled with Krebs buffer and continuously gassed at 37° C. with O2 (95%) and CO2 (5%).
The constructions of the lung strips were recorded on a disc via an amplifier.
After 30 minutes acclimatisation phase, histamine control spasms were produced for the recognition of the reaction ability of the organ pieces, washed, subsequently the test substance pre-incubated for 20 minutes at 37° C. and thereafter the ovalbumin-caused constriction initiated.
The inhibition actions of the compounds according to the invention were expressed as percentage reduction of the constriction amplitude of the "samples with test substance" in comparison with the "untreated control constrictions".

plant growth = details: cited from earlier work
[5] = substance 10.00 mcg/ml, A = histamine 1.0 mcg/ml
[6] = substance 10.00 mcg/ml, B = ovalbumin 0.1 mcg/ml
[7] = substance 10.00 mcg/ml, C = glucose 1.16 %
[8] = substance 10.00 mcg/ml, D = ovalbumin 1.0 mcg/ml
[9] = substance 40.00 mcg/ml, A = histamine 1.0 mcg/ml
[10] = substance 40.00 mcg/ml, B = ovalbumin 0.1 mcg/ml
[11] = substance 40.00 mcg/ml, C = glucose 1.16 %
[12] = substance 40.00 mcg/ml, D = ovalbumin 1.0 mcg/ml
[13] = Homo sapiens, Leukocyte, conc. 2 μg/ml
[14] = Homo sapiens, Leukocyte, conc. 10 μg/ml
[15] = substance 40.00 mcg/ml, A = histamine 1.0 mcg/ml, read-out: Inhibition of constriction (percentage reduction of the constriction amplitude), spasmogen A
[16] = substance 40.00 mcg/ml, B = ovalbumin 0.1 mcg/ml, read-out: Inhibition of constriction (percentage reduction of the constriction amplitude), spasmogen B
[17] = substance 40.00 mcg/ml, C = glucose 1.16 %, read-out: Inhibition of constriction (percentage reduction of the constriction amplitude), spasmogen C
[18] = substance 40.00 mcg/ml, D = ovalbumin 1.0 mcg/ml, read-out: Inhibition of constriction (percentage reduction of the constriction amplitude), spasmogen D
[19] = substance 10.00 mcg/ml, A = histamine 1.0 mcg/ml, read-out: Inhibition of constriction (percentage reduction of the constriction amplitude), spasmogen A
[20] = substance 10.00 mcg/ml, B = ovalbumin 0.1 mcg/ml, read-out: Inhibition of constriction (percentage reduction of the constriction amplitude), spasmogen B
[21] = substance 10.00 mcg/ml, C = glucose 1.16 %, read-out: Inhibition of constriction (percentage reduction of the constriction amplitude), spasmogen C
[22] = substance 10.00 mcg/ml, D = ovalbumin 1.0 mcg/ml, read-out: Inhibition of constriction (percentage reduction of the constriction amplitude), spasmogen D
[23] = Homo sapiens, Leukocyte, conc. 90 μg/ml

Structure (SMILES): C[C@H]1CCCCC[C@H](O)[C@@H](O)/C=C\C(=O)O1 [cladospolide B]
- action on the root growth of lettuce seeds [1]: promotingly

- % inhibition proteinase ([3]; conc. 2 μg/ml): 5%
- % inhibition proteinase ([3]; conc. 10 μg/ml): 46%
Structure (SMILES): C[C@@H]1CCCCC[C@H](O)[C@H](O)/C=C/C(=O)O1 [cladospolide A]
- % inhibition histamine ([2]; conc. 2 μg/ml): 8%
- % inhibition histamine ([2]; conc. 10 μg/ml): 44%
- Inhibition of constriction (percentage reduction of the constriction amplitude), spasmogen A [4, 5]: -5%
- Inhibition of constriction (percentage reduction of the constriction amplitude), spasmogen B [4, 6]: -50%
- Inhibition of constriction (percentage reduction of the constriction amplitude), spasmogen C [4, 7]: -85%
- Inhibition of constriction (percentage reduction of the constriction amplitude), spasmogen D [4, 8]: -76%
- Inhibition of constriction (percentage reduction of the constriction amplitude), spasmogen A [4, 9]: 16%
- Inhibition of constriction (percentage reduction of the constriction amplitude), spasmogen B [4, 10]: 34%
- Inhibition of constriction (percentage reduction of the constriction amplitude), spasmogen C [4, 11]: 33%
- Inhibition of constriction (percentage reduction of the constriction amplitude), spasmogen D [4, 12]: 24%
- action on the root growth of lettuce seeds [1]: weakly inhibitingly

Structure (SMILES): CC(=O)OC1C=CC(=O)OC(C)CCCCCC1OC(C)=O (stereo not drawn) [diacetylcladospolide A, Diacetylcladospolide A]
- inhibition at 2 µg/mL [2, 13]: 17%
- inhibition at 10 µg/mL [2, 14]: 92%
- inhibition at 2 µg/mL [3, 13]: 14%
- inhibition at 10 µg/mL [3, 14]: 96%
- inhibition at 40 µg/mL [4, 15]: 6%
- inhibition at 40 µg/mL [4, 16]: 44%
- inhibition at 40 µg/mL [4, 17]: 45%
- inhibition at 40 µg/mL [4, 18]: 46%

Structure (SMILES): CC1CCCCCCC(=O)/C=C/C(=O)O1 (stereo not drawn) [patulolide A]
- inhibition at 2 µg/mL [2, 13]: 44%
- inhibition at 10 µg/mL [2, 14]: 100%
- inhibition at 2 µg/mL [3, 13]: 46%
- inhibition at 10 µg/mL [3, 14]: 99%
- inhibition at 10 µg/mL [4, 19]: 23%
- inhibition at 10 µg/mL [4, 20]: 35%
- inhibition at 10 µg/mL [4, 21]: 35%
- inhibition at 10 µg/mL [4, 22]: 35%
- inhibition at 40 µg/mL [4, 15]: 21%
- inhibition at 40 µg/mL [4, 16]: 51%
- inhibition at 40 µg/mL [4, 17]: 53%
- inhibition at 40 µg/mL [4, 18]: 30%
- plant growth inhibition (plant growth): plant growth inhibiting

Structure (SMILES): CC1CCCCCCC(=O)/C=C\C(=O)O1 (stereo not drawn) [patulolide B]
- inhibition at 2 µg/mL [2, 13]: 57%
- inhibition at 10 µg/mL [2, 14]: 100%
- inhibition at 2 µg/mL [3, 13]: 63%
- inhibition at 10 µg/mL [3, 14]: 99%
- inhibition at 10 µg/mL [4, 19]: 5%
- inhibition at 10 µg/mL [4, 20]: 54%
- inhibition at 10 µg/mL [4, 21]: 47%
- inhibition at 10 µg/mL [4, 22]: 51%
- inhibition at 40 µg/mL [4, 15]: 3%
- inhibition at 40 µg/mL [4, 16]: 95%
- inhibition at 40 µg/mL [4, 17]: 93%
- inhibition at 40 µg/mL [4, 18]: 93%
- plant growth inhibition (plant growth): plant growth inhibiting

Structure (SMILES): C[C@@H]1CCCCCC[C@H](O)/C=C\C(=O)O1 [patulolide C]
- Inhibition of constriction (percentage reduction of the constriction amplitude), spasmogen A [4, 5]: -38%
- Inhibition of constriction (percentage reduction of the constriction amplitude), spasmogen B [4, 6]: -35%
- Inhibition of constriction (percentage reduction of the constriction amplitude), spasmogen C [4, 7]: -98%
- Inhibition of constriction (percentage reduction of the constriction amplitude), spasmogen D [4, 8]: -26%
- R = relaxation ([4]; substance 40.00 mcg/ml): R
- Inhibition of constriction (percentage reduction of the constriction amplitude), spasmogen A [4, 9]: -24%
- Inhibition of constriction (percentage reduction of the constriction amplitude), spasmogen B [4, 10]: -40%
- Inhibition of constriction (percentage reduction of the constriction amplitude), spasmogen C [4, 11]: -36%
- Inhibition of constriction (percentage reduction of the constriction amplitude), spasmogen D [4, 12]: -33%
- plant growth inhibition (plant growth): plant growth inhibiting

Structure (SMILES): Cn1c(=O)c2[nH]cnc2n(C)c1=O [theophylline, reference compound]
- inhibition at 90 µg/mL [2, 23]: 72%
- inhibition at 90 µg/mL [3, 23]: 70%
